Data reported in PMC8868518, “Exploring Titanium(IV) Complexes as Potential Antimicrobial Compounds” (Antibiotics, 2022).

How the values were obtained:
human red blood cells = test: CO-ADD hemolysis assay; type: cell-based; details: all concentrations examined (0.25-32 μg/mL), 1 h; HC10 and HC50 could not be measured
Description: The compounds were used as received by the CO-ADD. For the screenings, most compounds were dissolved to a stock concentration of 10 mg/mL in DMSO. K2[Ti(Citrate)3], Na3Citrate, and K2[TiO(Oxalate)2] were dissolved in warm water. [Cu(Deferasirox)(H2O)]2 was dissolved in pyridine after its solubility was determined to be excellent in pyridine due to coordination of the solvent to the metal producing [Cu(Deferasirox)(pyridine)]2 in situ. […] Each sample concentration was prepared in 384-well plates, non-binding surface plate (NBS; Corning 3640) for each bacterial/fungal strain, tissue-culture treated (TC-treated; Corning 3712/3764), black for mammalian cell types and polypropylene 384-well (PP; […] All sample preparation was conducted using liquid handling robots. Human whole blood (Australian Red Cross) was washed three times with three volumes of 0.9% NaCl and resuspended in a concentration of 0.5 × 10^8 cells per mL, determined by manual cell count in a Neubauer hemocytometer. Washed cells were added to the compound-containing plates (384-well polypropylene plates (PP); Corning 3657) for a final volume of 50 μL, shaken and incubated for 1 h at 37 °C. […]

MRC-5 cells = details: cited from earlier work
[1] = pH 4; cited from earlier work

Compound | hemolysis of human red blood cells (in words) (human red blood cells) | IC50 ± SD (MRC-5 cells) [µg/mL] | IC50 (MRC-5 cells; read-out: IC50 ± SD) [µM] | solution stability (in words) [1]
O=C(O)c1ccc(-n2nc3nc2-c2ccccc2[O][Ti]2([O]c4ccccc4-3)[O]c3ccccc3-c3nc(n(-c4ccc(C(=O)O)cc4)n3)-c3ccccc3[O]2)cc1 [Compound 10, titanium(IV) bis(deferasirox)] | insignificant antiproliferative effect | 19.8 ± 0.8 | 25 ± 1 | highly stable in solution
O=C([O-])C(=O)O.O=C([O-])C(=O)O.[K+].[K+].[O]=[Ti] [Compound 14, Potassium dioxalatoxotitanate(IV) dihydrate] | insignificant antiproliferative effect |  |  | 
[K+].[K+].c1ccc2cc3c(cc2c1)[O][Ti-2]12([O]3)([O]c3cc4ccccc4cc3[O]1)[O]c1cc3ccccc3cc1[O]2 [Compound 8, K2[Ti(Naphthalene-2,3-diolate)3]] |  |  |  | highly stable in solution
